Test results taken from PubChem BioAssay (NCI).
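Briefly, cells in 96-well plates were exposed to five compound concentrations for 48 h, and endpoints were estimated by linear interpolation. TGI marks complete inhibition of growth.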

Assays:
Assay in all cases: NCI-60 cell line screen, 48 h
[1] = system: MCF7 breast
[2] = system: SK-OV-3 ovarian
[3] = system: NCI-H460 lung
[4] = system: OVCAR-5 ovarian
[5] = system: M14 melanoma
[6] = system: T-47D breast
[7] = system: SW-620 colon
[8] = system: NCI/ADR-RES ovarian
[9] = system: HOP-92 NSCLC
[10] = system: A498 renal
[11] = system: MDA-MB-231 breast
[12] = system: UACC-257 melanoma
[13] = system: MALME-3M melanoma
[14] = system: TK-10 renal
[15] = system: RPMI-8226 leukemia
[16] = system: 786-0 renal
[17] = system: LOX IMVI melanoma
[18] = system: SNB-19 CNS
[19] = system: KM12 colon
[20] = system: OVCAR-3 ovarian
[21] = system: RXF 393 renal
[22] = system: SK-MEL-2 melanoma
[23] = system: SR leukemia
[24] = system: SNB-75 CNS
[25] = system: HCT-15 colon
[26] = system: DU-145 prostate
[27] = system: OVCAR-8 ovarian
[28] = system: COLO 205 colon
[29] = system: HOP-62 NSCLC
[30] = system: UACC-62 melanoma
[31] = system: MDA-MB-435
[32] = system: HCT-116 colon
[33] = system: U251 CNS
[34] = system: NCI-H226 lung
[35] = system: NCI-H522 lung
[36] = system: SK-MEL-5 melanoma
[37] = system: HS 578T breast
[38] = system: OVCAR-4 ovarian
[39] = system: EKVX NSCLC
[40] = system: A549 NSCLC
[41] = system: SF-268 CNS
[42] = system: BT-549 breast
[43] = system: IGROV1 ovarian
[44] = system: K-562 leukemia
[45] = system: HT29 colon
[46] = system: SN12C renal
[47] = system: SF-295 CNS
[48] = system: ACHN renal
[49] = system: PC-3 prostate
[50] = system: SK-MEL-28 melanoma
[51] = system: SF-539 CNS
[52] = system: HCC-2998 colon
[53] = system: CAKI-1 renal
[54] = system: NCI-H23 lung
[55] = system: MDA-N
[56] = system: UO-31 renal
[57] = system: MOLT-4 leukemia
[58] = system: CCRF-CEM leukemia

Cc1ccc(/C(C#N)=C/c2cccc([N+](=O)[O-])c2)cc1
TGI [1]: > 100 µM | TGI [2]: > 100 µM | TGI [3]: > 100 µM | TGI [4]: > 100 µM | TGI [5]: > 100 µM | TGI [6]: > 100 µM | TGI [7]: > 100 µM | TGI [8]: > 100 µM | TGI [9]: > 100 µM | TGI [10]: > 100 µM | TGI [11]: 52.8 µM | TGI [12]: > 100 µM | TGI [13]: > 100 µM | TGI [14]: > 100 µM | TGI [15]: > 100 µM | TGI [16]: > 100 µM | TGI [17]: > 100 µM | TGI [18]: > 100 µM | TGI [19]: > 100 µM | TGI [20]: > 100 µM | TGI [21]: 41 µM | TGI [22]: > 100 µM | TGI [23]: > 100 µM | TGI [24]: 39.6 µM | TGI [25]: > 100 µM | TGI [26]: > 100 µM | TGI [27]: > 100 µM | TGI [28]: > 100 µM | TGI [29]: > 100 µM | TGI [30]: > 100 µM | TGI [31]: > 100 µM | TGI [32]: > 100 µM | TGI [33]: > 100 µM | TGI [34]: > 100 µM | TGI [35]: > 100 µM | TGI [36]: > 100 µM | TGI [37]: 65 µM | TGI [38]: > 100 µM | TGI [39]: > 100 µM | TGI [40]: > 100 µM | TGI [41]: > 100 µM | TGI [42]: > 100 µM | TGI [43]: > 100 µM | TGI [44]: > 100 µM | TGI [45]: > 100 µM | TGI [46]: > 100 µM | TGI [47]: 67.3 µM | TGI [48]: > 100 µM | TGI [49]: > 100 µM | TGI [50]: > 100 µM | TGI [51]: > 100 µM | TGI [52]: > 100 µM | TGI [53]: > 100 µM | TGI [54]: > 100 µM | TGI [55]: > 100 µM | TGI [56]: > 100 µM

COc1ccc(/C=N/n2c(C)n[nH]c2=O)c(OC)c1
TGI [1]: > 100 µM | TGI [2]: > 100 µM | TGI [3]: > 100 µM | TGI [4]: > 100 µM | TGI [57]: > 100 µM | TGI [5]: > 100 µM | TGI [6]: > 100 µM | TGI [7]: > 100 µM | TGI [8]: > 100 µM | TGI [10]: > 100 µM | TGI [11]: > 100 µM | TGI [12]: > 100 µM | TGI [13]: > 100 µM | TGI [15]: > 100 µM | TGI [16]: > 100 µM | TGI [18]: > 100 µM | TGI [58]: > 100 µM | TGI [19]: > 100 µM | TGI [20]: > 100 µM | TGI [22]: > 100 µM | TGI [24]: > 100 µM | TGI [25]: > 100 µM | TGI [26]: > 100 µM | TGI [27]: > 100 µM | TGI [28]: > 100 µM | TGI [29]: > 100 µM | TGI [30]: > 100 µM | TGI [31]: > 100 µM | TGI [32]: > 100 µM | TGI [33]: > 100 µM | TGI [34]: > 100 µM | TGI [37]: 9.01 µM | TGI [38]: > 100 µM | TGI [39]: > 100 µM | TGI [40]: > 100 µM | TGI [41]: > 100 µM | TGI [42]: > 100 µM | TGI [44]: > 100 µM | TGI [45]: > 100 µM | TGI [46]: > 100 µM | TGI [47]: > 100 µM | TGI [48]: > 100 µM | TGI [49]: > 100 µM | TGI [50]: > 100 µM | TGI [51]: > 100 µM | TGI [52]: > 100 µM | TGI [53]: > 100 µM | TGI [54]: > 100 µM | TGI [55]: > 100 µM | TGI [56]: > 100 µM
